Measurements: the supplement of paper PMC8671470
± gives the standard deviation of the averaged measurements.

Test system: HL-60
Assay: cell viability (% survival relative to DMSO control); higher = less cytotoxic
Conditions: 72 h
Summary of the method: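 A rescreen of the full library used HL-60 cells in RPMI 1640 with 10% FBS on 384-well plates, run in duplicate at five tenfold concentrations (1–10,000 nM). Each screen included DMSO or 100 nM of one of three metabolic inhibitors and ran 72 h at 37 °C, 5% CO2. CellTiter-Glo viability was scaled between DMSO and 10 μM proteasome-inhibitor wells. Any area under the curve comes from four-parameter log-logistic fits with drc and PharmacoGx.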

[1] = 0.001 µM, co-treatment: AZD3965 100 nM
[2] = 0.001 µM, co-treatment: DMSO vehicle
[3] = 0.001 µM, co-treatment: GSK2194069 100 nM
[4] = 0.001 µM, co-treatment: pictilisib 100 nM
[5] = 0.01 µM, co-treatment: AZD3965 100 nM
[6] = 0.01 µM, co-treatment: DMSO vehicle
[7] = 0.01 µM, co-treatment: GSK2194069 100 nM
[8] = 0.01 µM, co-treatment: pictilisib 100 nM
[9] = 0.1 µM, co-treatment: AZD3965 100 nM
[10] = 0.1 µM, co-treatment: DMSO vehicle
[11] = 0.1 µM, co-treatment: GSK2194069 100 nM
[12] = 0.1 µM, co-treatment: pictilisib 100 nM
[13] = 1 µM, co-treatment: AZD3965 100 nM
[14] = 1 µM, co-treatment: DMSO vehicle
[15] = 1 µM, co-treatment: GSK2194069 100 nM
[16] = 1 µM, co-treatment: pictilisib 100 nM
[17] = 10 µM, co-treatment: AZD3965 100 nM
[18] = 10 µM, co-treatment: DMSO vehicle
[19] = 10 µM, co-treatment: GSK2194069 100 nM
[20] = 10 µM, co-treatment: pictilisib 100 nM

| SMILES | cell viability [1] | cell viability [2] | cell viability [3] | cell viability [4] | cell viability [5] | cell viability [6] | cell viability [7] | cell viability [8] | cell viability [9] | cell viability [10] | cell viability [11] | cell viability [12] | cell viability [13] | cell viability [14] | cell viability [15] | cell viability [16] | cell viability [17] | cell viability [18] | cell viability [19] | cell viability [20] |
| --- | --- | --- | --- | --- | --- | --- | --- | --- | --- | --- | --- | --- | --- | --- | --- | --- | --- | --- | --- | --- |
| O=C(O)c1nn(Cc2ccc(Cl)cc2Cl)c2ccccc12 [Lonidamine] | 96.3 ± 3.7% | 97.83 ± 0.75% | 96.6 ± 2.2% | 101 ± 1.6% | 90.8 ± 2% | 105 ± 1.4% | 97.05 ± 0.16% | 99.3 ± 12% | 100 ± 3.7% | 100.5 ± 0.34% | 98.9 ± 2.4% | 98.22 ± 0.36% | 101 ± 1.1% | 101 ± 1.2% | 101 ± 7.9% | 103 ± 7.6% | 95.4 ± 9.7% | 98.4 ± 5.4% | 99.8 ± 5.7% | 94.8 ± 8.1% |
| CCOc1ccc(Cc2cc([C@@H]3O[C@H](CO)[C@@H](O)[C@H](O)[C@H]3O)ccc2Cl)cc1 [Dapagliflozin] | 100.2 ± 0.34% | 105 ± 2.9% | 100.95 ± 0.06% | 99.1 ± 5.3% | 97.7 ± 4.2% | 101.3 ± 0.77% | 102 ± 1.1% | 103 ± 1.6% | 99.5 ± 0.33% | 100 ± 3.5% | 100 ± 4.8% | 101.6 ± 0.16% | 103.3 ± 0.55% | 99.6 ± 1.8% | 96 ± 1.6% | 104 ± 5.3% | 104 ± 2% | 103 ± 3.6% | 102 ± 4.6% | 100 ± 6.2% |
| C#Cc1cnc(O)nc1O [Eniluracil] | 86 ± 17% | 102 ± 2% | 88.7 ± 30% | 85.5 ± 17% | 97.4 ± 1.8% | 101.6 ± 0.32% | 93.8 ± 3.5% | 100.4 ± 0.67% | 103 ± 2.1% | 101.1 ± 0.89% | 100.8 ± 0.49% | 99.32 ± 0.24% | 103 ± 1.8% | 99.9 ± 4.8% | 95.8 ± 9.8% | 102 ± 6.5% | 102.99 ± 0.034% | 101 ± 4.8% | 96.7 ± 6.7% | 103 ± 4.7% |
| O=C(O)C(Cl)Cl [Dichloroacetate] | 96.1 ± 3.5% | 96.5 ± 1.4% | 98.6 ± 9.5% | 89.5 ± 5.3% | 105 ± 4.1% | 104 ± 6.4% | 104 ± 2% | 100 ± 12% | 104 ± 4% | 102 ± 2.5% | 96.3 ± 9.7% | 91 ± 4% | 101 ± 2.4% | 101 ± 2.9% | 98.3 ± 5.9% | 99.9 ± 2.8% | 101 ± 1.1% | 100.4 ± 0.25% | 102.8 ± 0.97% | 97 ± 5.1% |
| CCCc1nn(C)c2c(O)nc(-c3cc(S(=O)(=O)N4CCN(C)CC4)ccc3OCC)nc12 [Sildenafil] | 104 ± 6.6% | 88.1 ± 13% | 91.3 ± 6.8% | 79.6 ± 40% | 99.2 ± 1.4% | 98.4 ± 4.1% | 96.77 ± 0.75% | 102 ± 7.1% | 104.5 ± 0.69% | 106 ± 5.1% | 123 ± 12% | 117 ± 10% | 99.4 ± 4.6% | 103 ± 2.1% | 97.06 ± 0.92% | 93.6 ± 18% | 99.89 ± 0.83% | 102 ± 2.9% | 93 ± 1.7% | 94.7 ± 7.5% |
| COc1c(C)c2c(c(O)c1C/C=C(\C)CCC(=O)O)C(=O)OC2 [Mycophenolic acid] | 96.8 ± 3.9% | 72.1 ± 34% | 85.6 ± 16% | 91.1 ± 12% | 89.8 ± 13% | 96.4 ± 5.6% | 86.3 ± 18% | 92.87 ± 0.34% | 99 ± 6.1% | 95.9 ± 2.7% | 94.33 ± 0.34% | 99.1 ± 7.1% | 113.3 ± 0.98% | 106.1 ± 0.96% | 103 ± 7.8% | 98.72 ± 0.17% | 31.9 ± 4.8% | 56.2 ± 3.4% | 55.8 ± 1.6% | 55.7 ± 1.7% |
| Cc1c(-c2ccccc2)oc2c(C(=O)OCCN3CCCCC3)cccc2c1=O.Cl [Flavoxate] | 90.8 ± 13% | 99.7 ± 1.6% | 82.5 ± 21% | 98.6 ± 1% | 101.5 ± 0.24% | 100 ± 1.1% | 101 ± 2.1% | 105 ± 3.5% | 109 ± 9.9% | 104 ± 2.8% | 105 ± 11% | 110 ± 16% | 103 ± 3.7% | 95.5 ± 12% | 98.1 ± 9.8% | 101 ± 9.9% | 97.1 ± 5.2% | 98.8 ± 0.023% | 91.7 ± 8% | 91.7 ± 10% |
